Reference: ChEMBL document CHEMBL1201862, “PubChem BioAssay data set” (2004)
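Cells were grown in 96-well plates and exposed to each compound for 48 hours at five concentrations; endpoints were interpolated linearly between bracketing concentrations, or set to the highest concentration if not reached. GI50 = concentration required for 50% inhibition of growth.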 Calls of active or inactive are those of the source. Cut-off read from the data, not from the text of the source: active = GI50 up to about 1.1 µM and inactive = higher.

Columns and labels:
Experiment in all cases: NCI-60 cell line screen, 48 h
[1] = test system: 786-0
[2] = test system: A498
[3] = test system: A549
[4] = test system: ACHN
[5] = test system: CAKI-1
[6] = test system: CCRF-CEM
[7] = test system: COLO 205
[8] = test system: DLD-1
[9] = test system: DMS-114
[10] = test system: DMS-273
[11] = test system: EKVX
[12] = test system: HCC 2998
[13] = test system: HCT-116
[14] = test system: HCT-15
[15] = test system: HL-60
[16] = test system: HOP-18
[17] = test system: HOP-62
[18] = test system: HOP-92
[19] = test system: HT-29
[20] = test system: IGROV-1
[21] = test system: K562
[22] = test system: KM-20L2
[23] = test system: KM12
[24] = test system: LOX IMVI
[25] = test system: LXFL 529
[26] = test system: M14
[27] = test system: M19-MEL
[28] = test system: MOLT-4
[29] = test system: Malme-3M
[30] = test system: NCI-H226
[31] = test system: NCI-H23
[32] = test system: NCI-H460
[33] = test system: NCI-H522
[34] = test system: OVCAR-3
[35] = test system: OVCAR-4
[36] = test system: OVCAR-5
[37] = test system: OVCAR-8
[38] = test system: RPMI-8226
[39] = test system: RXF 393
[40] = test system: RXF 631
[41] = test system: SF-268
[42] = test system: SF-295
[43] = test system: SF-539
[44] = test system: SK-MEL-28
[45] = test system: SK-MEL-2
[46] = test system: SK-MEL-5
[47] = test system: SK-OV-3
[48] = test system: SN12C
[49] = test system: SNB-19
[50] = test system: SNB-75
[51] = test system: SNB-78
[52] = test system: SR
[53] = test system: SW-620
[54] = test system: TK-10
[55] = test system: U-251
[56] = test system: UACC-257
[57] = test system: UACC-62
[58] = test system: UO-31
[59] = test system: XF498

Compound: Cc1c(Cl)cccc1NC(=O)c1cccc([N+](=O)[O-])c1O
- GI50 [1]: 20.5 µM (inactive)
- GI50 [2]: 14.2 µM (inactive)
- GI50 [3]: 11.4 µM (inactive)
- GI50 [4]: 7.83 µM (inactive)
- GI50 [5]: 9.59 µM (inactive)
- GI50 [6]: 4.2 µM (inactive)
- GI50 [7]: 14.1 µM (inactive)
- GI50 [8]: 21.4 µM (inactive)
- GI50 [9]: 11.5 µM (inactive)
- GI50 [10]: 12.4 µM (inactive)
- GI50 [11]: 16 µM (inactive)
- GI50 [12]: 7.18 µM (inactive)
- GI50 [13]: 13.7 µM (inactive)
- GI50 [14]: 14.4 µM
- GI50 [15]: 8.39 µM (inactive)
- GI50 [16]: 2.7 µM (inactive)
- GI50 [17]: 9.29 µM (inactive)
- GI50 [18]: 2.37 µM (inactive)
- GI50 [19]: 12.9 µM (inactive)
- GI50 [20]: 5.83 µM (inactive)
- GI50 [21]: 17.3 µM (inactive)
- GI50 [22]: 13.1 µM (inactive)
- GI50 [23]: 21.4 µM (inactive)
- GI50 [24]: 5.78 µM (inactive)
- GI50 [25]: 11.3 µM (inactive)
- GI50 [26]: 16.8 µM (inactive)
- GI50 [27]: 13.8 µM (inactive)
- GI50 [28]: 5.82 µM (inactive)
- GI50 [29]: 6.25 µM (inactive)
- GI50 [30]: 15.5 µM (inactive)
- GI50 [31]: 6.87 µM (inactive)
- GI50 [32]: 8.81 µM (inactive)
- GI50 [33]: 6.44 µM (inactive)
- GI50 [34]: 5.71 µM (inactive)
- GI50 [35]: 9.79 µM (inactive)
- GI50 [36]: > 43 µM (inactive)
- GI50 [37]: 21 µM (inactive)
- GI50 [38]: 3.24 µM (inactive)
- GI50 [39]: 4.29 µM (inactive)
- GI50 [40]: 13.8 µM (inactive)
- GI50 [41]: 20.3 µM (inactive)
- GI50 [42]: 16.4 µM (inactive)
- GI50 [43]: 15.7 µM (inactive)
- GI50 [44]: 9.68 µM (inactive)
- GI50 [45]: 10.7 µM (inactive)
- GI50 [46]: 3.26 µM (inactive)
- GI50 [47]: 25.6 µM (inactive)
- GI50 [48]: 14 µM (inactive)
- GI50 [49]: 8.55 µM (inactive)
- GI50 [50]: 17.5 µM (inactive)
- GI50 [51]: 34.1 µM (inactive)
- GI50 [52]: 22.3 µM (inactive)
- GI50 [53]: 28.2 µM (inactive)
- GI50 [54]: 41.8 µM (inactive)
- GI50 [55]: 9.44 µM (inactive)
- GI50 [56]: 8.51 µM (inactive)
- GI50 [57]: 2.18 µM (inactive)
- GI50 [58]: 10.5 µM (inactive)
- GI50 [59]: 16.3 µM (inactive)
